Laboratory results published in ChEMBL document CHEMBL4321828, “Recent developments on (-)-colchicine derivatives: Synthesis and structure-activity relationship” (Eur J Med Chem, 2020).
pIC50: −log10 of the molar value.

How the values were obtained:
[1] = tested on: HCT-116; assay: Antiproliferative activity against human HCT116 cells assessed as reduction in cell viability incubated for 48 hrs by MTT assay; format: functional, cell-based; settings: HCT-116, 48 h
[2] = target: ATP-dependent translocase ABCB1 (Homo sapiens, UniProt P08183); assay: Induction of P-gp in human LS180 cells assessed as […] in intracellular accumulation of Rh123 at 100 nM using Rho123 as substrate preincubated for 48 hrs followed by addition of Rh123 and measured after 90 mins by fluorescence based assay relative to control; format: cell-based; settings: ls180, 48 h preincubation, then 1.5 h with Rh123, 0.1 µM
Sequence of ATP-dependent translocase ABCB1 (P08183 whole entry): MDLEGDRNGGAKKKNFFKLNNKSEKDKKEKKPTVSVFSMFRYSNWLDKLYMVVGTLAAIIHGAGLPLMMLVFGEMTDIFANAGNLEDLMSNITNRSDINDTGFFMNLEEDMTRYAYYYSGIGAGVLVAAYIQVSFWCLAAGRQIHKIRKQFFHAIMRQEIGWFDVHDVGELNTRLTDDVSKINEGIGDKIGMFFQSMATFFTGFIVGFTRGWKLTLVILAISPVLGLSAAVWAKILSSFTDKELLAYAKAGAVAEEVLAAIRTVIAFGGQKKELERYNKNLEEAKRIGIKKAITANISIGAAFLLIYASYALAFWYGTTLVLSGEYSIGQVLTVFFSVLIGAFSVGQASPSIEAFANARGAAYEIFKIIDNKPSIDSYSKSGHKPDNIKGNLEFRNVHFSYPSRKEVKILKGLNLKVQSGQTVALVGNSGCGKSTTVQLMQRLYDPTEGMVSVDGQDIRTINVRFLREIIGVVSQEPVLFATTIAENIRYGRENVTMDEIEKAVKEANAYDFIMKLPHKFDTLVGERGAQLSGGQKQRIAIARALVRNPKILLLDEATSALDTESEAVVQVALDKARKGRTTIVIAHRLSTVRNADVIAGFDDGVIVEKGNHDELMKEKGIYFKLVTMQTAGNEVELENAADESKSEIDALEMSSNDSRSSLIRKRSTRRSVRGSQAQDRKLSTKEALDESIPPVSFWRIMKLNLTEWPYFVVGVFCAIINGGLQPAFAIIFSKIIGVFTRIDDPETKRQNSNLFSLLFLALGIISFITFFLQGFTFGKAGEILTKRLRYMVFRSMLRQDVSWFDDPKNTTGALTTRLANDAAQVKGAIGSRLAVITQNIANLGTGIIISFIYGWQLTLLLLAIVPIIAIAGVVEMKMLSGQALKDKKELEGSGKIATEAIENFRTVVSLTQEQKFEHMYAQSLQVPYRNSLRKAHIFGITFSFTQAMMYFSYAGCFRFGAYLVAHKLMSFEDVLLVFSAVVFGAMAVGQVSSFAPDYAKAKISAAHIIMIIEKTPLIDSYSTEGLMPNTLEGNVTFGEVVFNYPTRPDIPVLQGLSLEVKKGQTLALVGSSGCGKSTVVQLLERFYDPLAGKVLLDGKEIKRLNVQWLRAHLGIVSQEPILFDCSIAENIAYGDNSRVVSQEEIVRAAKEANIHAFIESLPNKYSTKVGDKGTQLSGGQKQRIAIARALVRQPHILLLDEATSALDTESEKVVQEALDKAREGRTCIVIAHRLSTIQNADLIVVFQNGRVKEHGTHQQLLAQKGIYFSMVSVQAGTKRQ

[3] = tested on: COLO 205; assay: Antiproliferative activity against human COLO205 cells assessed as reduction in cell viability incubated for 48 hrs by MTT assay; format: functional, cell-based; settings: COLO 205, 48 h
[4] = tested on: DLD-1; assay: Antiproliferative activity against human DLD1 cells assessed as reduction in cell viability; format: functional, cell-based
[5] = tested on: MCF7; assay: Antiproliferative activity against human MCF7 cells assessed as reduction in cell viability; format: functional, cell-based
[6] = tested on: LoVo; assay: Antiproliferative activity against human LoVo cells assessed as reduction in cell viability; format: functional, cell-based
[7] = tested on: MDA-MB-231; assay: Antiproliferative activity against human MDA-MB-231 cells assessed as reduction in cell viability; format: functional, cell-based
[8] = Antiproliferative activity against human KB-8-5-11 cells assessed as reduction in cell viability after 96 hrs by methylene blue staining based spectrophotometric method; format: functional
[9] = tested on: KB 3-1; assay: Antiproliferative activity against human KB3-1 cells assessed as reduction in cell viability after 96 hrs by methylene blue staining based spectrophotometric method; format: functional; settings: KB 3-1, 96 h
[10] = tested on: A2780; assay: Antiproliferative activity against human A2780 cells assessed as reduction in cell viability by MTT assay; format: functional, cell-based
[11] = tested on: Bel-7402; assay: Antiproliferative activity against human Bel7402 cells assessed as reduction in cell viability by MTT assay; format: functional, cell-based
[12] = tested on: A549; assay: Antiproliferative activity against human A549 cells assessed as reduction in cell viability by MTT assay; format: functional, cell-based
[13] = tested on: MCF7; assay: Antiproliferative activity against human MCF7 cells assessed as reduction in cell viability by MTT assay; format: functional, cell-based
[14] = tested on: MCF7; assay: Antiproliferative activity against human MCF7 cells assessed as reduction in cell viability incubated for 24 hrs by SRB assay; format: functional, cell-based; settings: MCF7, 24 h
[15] = tested on: SK-MEL-2; assay: Antiproliferative activity against human SK-MEL-2 cells assessed as reduction in cell viability incubated for 24 hrs by SRB assay; format: functional, cell-based; settings: SK-MEL-2, 24 h
[16] = tested on: SK-OV-3; assay: Antiproliferative activity against human SKOV3 cells assessed as reduction in cell viability incubated for 24 hrs by SRB assay; format: functional, cell-based; settings: SK-OV-3, 24 h
[17] = tested on: HCT-15; assay: Antiproliferative activity against human HCT15 cells assessed as reduction in cell viability incubated for 24 hrs by SRB assay; format: functional, cell-based; settings: HCT-15, 24 h
[18] = tested on: A549; assay: Antiproliferative activity against human A549 cells assessed as reduction in cell viability incubated for 24 hrs by SRB assay; format: functional, cell-based; settings: A549, 24 h

## COc1cc2c(c(OC)c1OC)-c1ccc(=N)c(O)cc1[C@@H](NC(C)=O)CC2
[1]
  pIC50: 6.82
[2]
  Activity: 107.41%
[3]
  pIC50: 6.92

## CCN(CC)c1ccc2c(cc1=O)[C@@H](NC(C)=O)CCc1cc(OC)c(OC)c(OC)c1-2
[1]
  pIC50: 6.10
[2]
  Activity: 95.38%
[3]
  pIC50: 6.37

## CCCSc1ccc2c(cc1=O)[C@@H](NC(C)=O)CCc1cc(OC)c(OC)c(OC)c1-2
[4]
  pIC50: 7.14
[5]
  pIC50: 6.12
[6]
  pIC50: 7.25
[7]
  pIC50: 6.15

## CCSc1ccc2c(cc1=O)[C@@H](NC(C)=O)CCc1cc(OC)c(OC)c(OC)c1-2
[4]
  pIC50: 7.29
[5]
  pIC50: 7.25
[6]
  pIC50: 7.71
[7]
  pIC50: 6.83

## CCCCSc1ccc2c(cc1=O)[C@@H](NC(C)=O)CCc1cc(OC)c(OC)c(OC)c1-2
[4]
  pIC50: 6.50
[5]
  pIC50: 6.06
[6]
  pIC50: 6.36
[7]
  pIC50: 5.75

## COc1cc2c(c(OC)c1OC)-c1ccc(SC(C)C)c(=O)cc1[C@@H](NC(C)=O)CC2
[4]
  pIC50: 6.75
[5]
  pIC50: 6.25
[6]
  pIC50: 6.83
[7]
  pIC50: 5.96

## COc1c(CO)c2c(c(OC)c1OC)-c1ccc(OC)c(=O)cc1[C@@H](NC(C)=O)CC2
[8]
  pIC50: < 6.00
[9]
  pIC50: 6.59

## COc1cc2c(c(OC)c1OC)-c1ccc(N3CCNCC3)c(=O)cc1[C@@H](NC(C)=O)CC2
[1]
  pIC50: < 5.00
[2]
  Activity: 95.52%
[3]
  pIC50: 5.10

## CNc1ccc2c(cc1=O)[C@@H](NC(=O)CCC(=O)OCCCCO[N+](=O)[O-])CCc1cc(OC)c(OC)c(OC)c1-2
[10]
  pIC50: 8.00
[11]
  pIC50: 7.89
[12]
  pIC50: 7.92
[13]
  pIC50: 8.10

## CNc1ccc2c(cc1=O)[C@@H](NC(=O)CCC(=O)OCCCO[N+](=O)[O-])CCc1cc(OC)c(OC)c(OC)c1-2
[10]
  pIC50: 7.00
[11]
  pIC50: 7.07
[12]
  pIC50: 7.06
[13]
  pIC50: 6.87

## COc1cc2c(c(OC)c1OC)-c1ccc(SC)c(=O)cc1[C@@H](NC(=O)CCC1=C(C)c3cc4[nH]c(cc5nc(cc6[nH]c(cc1n3)c(CCC(=O)N[C@H]1CCc3cc(OC)c(OC)c(OC)c3-c3ccc(SC)c(=O)cc31)c6C)C(C(C)O)=C5C)c(C(C)O)c4C)CC2 (stereo not given in full)
[14]
  pIC50: 5.49
[15]
  pIC50: 5.55
[16]
  pIC50: 5.54
[17]
  pIC50: 5.32
[18]
  pIC50: 5.77

## COc1cc2c(c(OC)c1OC)-c1ccc(N3CCC(N)CC3)c(=O)cc1[C@@H](NC(C)=O)CC2
[1]
  pIC50: 5.00
[2]
  Activity: 102.04%
[3]
  pIC50: 5.30

## COc1cc2c(c(OC)c1OC)-c1ccc(N3CCCCC3)c(=O)cc1[C@@H](NC(C)=O)CC2
[1]
  pIC50: 5.52
[2]
  Activity: 119.01%
[3]
  pIC50: 5.74

## CCOC(=O)C1CCN(c2ccc3c(cc2=O)[C@@H](NC(C)=O)CCc2cc(OC)c(OC)c(OC)c2-3)CC1
[1]
  pIC50: < 5.00
[2]
  Activity: 95.49%
[3]
  pIC50: 5.10

## COc1cc2c(c(OC)c1OC)-c1ccc(N3CCCC3)c(=O)cc1[C@@H](NC(C)=O)CC2
[1]
  pIC50: 6.52
[2]
  Activity: 107.12%
[3]
  pIC50: 6.62

## COc1c(COC(C)=O)c2c(c(OC)c1OC)-c1ccc(OC)c(=O)cc1[C@@H](NC(C)=O)CC2
[8]
  pIC50: < 6.00
[9]
  pIC50: < 6.00

## CC/C=C\C/C=C\C/C=C\C/C=C\C/C=C\C/C=C\CCC(=O)N[C@H]1CCc2cc(OC)c(OC)c(OC)c2-c2ccc(SC)c(=O)cc21
[14]
  pIC50: 6.31
[15]
  pIC50: 5.70
[16]
  pIC50: 5.58
[17]
  pIC50: 6.41
[18]
  pIC50: 6.04

## COc1cc2c(c(OC)c1OC)-c1ccc(Nc3ccc4c(c3)OCO4)c(=O)cc1[C@@H](NC(C)=O)CC2
[1]
  pIC50: 5.40
[2]
  Activity: 102.66%
[3]
  pIC50: 5.52

## COc1cc2c(c(OC)c1OC)-c1ccc(N3CCN(C(=O)OC(C)(C)C)CC3)c(=O)cc1[C@@H](NC(C)=O)CC2
[1]
  pIC50: 5.40
[2]
  Activity: 90.94%
[3]
  pIC50: 5.52
